Data: US20250332173A1, “COMPOUNDS AND METHODS FOR MODULATING NUCLEIC ACID SPLICING” (REMIX THERAPEUTICS INC., priority 2021, published 2025)
Where two headings read alike, the source gives them in different places.

Assays:
HTT mRNA = test: RT-qPCR splicing assay, HTT canonical junction (CJ) and alternative junction (AJ) mRNA; type: cell-based, human; details: Homo sapiens; for AC50: increase in HTT alternative junction (AJ) mRNA, read-out: HTT AJ AC50
Procedure, shortened: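 A673 or K562 cells were treated for 24 h at 37 °C with an 11-point 3-fold compound dilution series (top final concentration 10 uM, DMSO ≤0.25%). After lysis, one-step TaqMan RT-qPCR quantified junction transcripts, normalized to PPIA for A673 or to GAPDH/GUSB for K562.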

MYB = test: HiBiT protein abundance assay, MYB HiBiT K562 cell line; type: cell-based, human; details: HiBiT K562 cell line, 24 hours, top dose 10 μM; read-out: Effect on protein abundance, MYB (IC50 category)
Procedure, shortened: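 Endogenous targets in K562 knock-in lines carried a HiBiT tag and were treated for 24 h at 37 °C with 10-point 3-fold dilutions (top 10 μM final, DMSO ≤0.25%). Abundance was read as lytic Nano-Glo HiBiT luminescence. IC50 came from a four-parameter logistic fit of normalized response.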

[1] = test system: K562 (human chronic myelogenous leukemia) cells; test: Cell Titer Glo 2.0 cell viability assay; type: cell-based; details: Homo sapiens, K562, 72 h, K562 cells, 72 hours, Cell Titer Glo 2.0; read-out: K562 GI50
[2] = decrease in HTT canonical junction (CJ) mRNA, RT-qPCR, read-out: HTT CJ IC50
[3] = Table 5 panel, canonical junction qPCR, compound concentration having 50% response in CJ decrease, read-out: HTT IC50 (decrease in CJ mRNA levels)

| Compound | IC50 (HTT mRNA; [2]) | IC50 (HTT mRNA; [3]) | IC50 (MYB) | GI50 [1] | AC50 (HTT mRNA; RT-qPCR) |
| --- | --- | --- | --- | --- | --- |
| Cc1cn2nc(-c3cc(C)c4c(=O)n(C5CCNCC5)cnc4c3)cc(C)c2n1 [Compound 355] | < 0.1 µM | 0.1 to 1 µM | < 0.1 µM | 0.1 to 1 µM | 0.1 to 1 µM |
| Cc1cn2nc(-c3cc(F)c4c(=O)n([C@@H]5CCNC6(CC6)C5)cnc4c3)cc(C)c2n1 [Compound 356] | < 0.1 µM | 0.1 to 1 µM | < 0.1 µM | 0.1 to 1 µM | 0.1 to 1 µM |
| CNc1cc(-c2cc(F)c3nc(C)cn3c2)cc2ncn(C3CCNCC3)c(=O)c12 [Compound 358, 7-{8-fluoro-2-methylimidazo[1,2-a]pyridine-6-yl}-5-(methylamino)-3-(piperidin-4-yl)quinazolin-4-one] | > 10 µM | 1 to 10 µM | 1 to 10 µM | 1 to 10 µM | 1 to 10 µM |
| CNc1cc(-c2cc(C)c3nc(C)cn3n2)cc2ncn(C3CCNCC3)c(=O)c12 [Compound 359, 7-{2,8-dimethylimidazo[1,2-b]pyridazin-6-yl}-5-(methylamino)-3-(piperidin-4-yl)quinazolin-4-one] | 1 to 10 µM | 1 to 10 µM | 0.1 to 1 µM | 0.1 to 1 µM | 1 to 10 µM |
| CNc1cc(-c2cn3cc(C)nc3c(C)n2)cc2ncn(C3CCNCC3)c(=O)c12 [Compound 360, 7-{2,8-dimethylimidazo[1,2-a]pyrazine-6-yl}-5-(methylamino)-3-(piperidin-4-yl)quinazolin-4-one] | > 10 µM | > 10 µM | > 10 µM | 1 to 10 µM | > 10 µM |

More lines, main results first:

| IC50 (HTT mRNA; [2]) | IC50 (HTT mRNA; [3]) | IC50 (MYB) | GI50 [1] | Compound | AC50 (HTT mRNA; RT-qPCR) |
| --- | --- | --- | --- | --- | --- |
| < 0.1 µM | < 0.1 µM | < 0.1 µM | 0.1 to 1 µM | Cc1cc(-c2cc(F)c3c(=O)n(C4CCNC5(CC5)C4)cnc3c2)nc2cn(C)nc12 (stereo not shown) [Compound 361, 3-{4-azaspiro[2.5]octan-7-yl}-7-{2,7-dimethylpyrazolo[4,3-b]pyridin-5-yl}-5-fluoroquinazolin-4-one] | < 0.1 µM |
| > 10 µM | > 10 µM | 1 to 10 µM | 1 to 10 µM | Cc1cn2nc(-c3cc(O)c4c(=O)n(C5CCNC5)cnc4c3)cc(C)c2n1 (stereo not shown) [Compound 362, 7-{2,8-dimethylimidazo[1,2-b]pyridazin-6-yl}-5-hydroxy-3-(pyrrolidin-3-yl)quinazolin-4-one] | > 10 µM |
| > 10 µM | > 10 µM | 1 to 10 µM | 1 to 10 µM | CNc1cc(-c2cc(C#N)c3nc(C)cn3c2)cc2ncn(C3CCNCC3)c(=O)c12 [Compound 363, 2-methyl-6-[5-(methylamino)-4-oxo-3-(piperidin-4-yl)quinazolin-7-yl]imidazo[1,2-a]pyridine-8-carbonitrile] | > 10 µM |
